The values that follow come from PMC5063506, “A Novel Class of Small Molecule Agonists with Preference for Human over Mouse TLR4 Activation” (PLoS ONE, 2016).

Data set [1] addresses T1, human TLR4 (Homo sapiens, UniProt O00206+Q9Y6Y9).
T1 construct: expressed in transfected cells; host or cells: HEK293 with stably integrated pNiFty2-SEAP reporter
Description: Human TLR4 NFκB SEAP reporter gene assay in hTLR4-transfected HEK293 cells. It counts as cell-based. Conditions: NFκB SEAP reporter, hTLR4-transfected HEK293 cells, 20 h; read-out: Human TLR4 pEC50 (converted). Here is the method:
HEK293 cells stably transfected with pNiFty2-SEAP reporter plasmid were transiently transfected with either human or mouse TLR4 (pUNO expression vector), in combination with either human or mouse CD14/MD2 (pDUO expression vector). Transient transfectants were seeded in Dulbecco’s Modified Eagle Medium, FCS 10% (v/v), 2 mM l glutamine and non-essential amino acids. Cells were seeded in tissue culture treated clear flat bottom polystyrene 96 well plates (Costar, 3598) at 1e4 cells/well. Concentration-response curves were generated by addition of test compounds and incubation for 20 h at 37°C in an atmosphere of 5% CO2. LPS (E. coli 0111:B4, Ultra-pure, Invivogen) or PHAD (Avanti Polar Lipids) was used as a positive control. The SEAP released was quantified using p nitrophenyl phosphate as a substrate, and the absorbance at 405 nm was measured at 30 second intervals over several minutes using a microplate reader. Some data are recorded as the pEC50, the negative log of the EC50 value. Other data generated from these reporter cell lines were converted to AUC (area under the curve) values by interpolation of fitted cubic spline curve between OD value and log concentration levels. The calculation is performed using MESS package in statistical software R (www.r-project.org/).
On the technique in general: Reporter assays use an easily measured gene product as a stand-in for the process of interest.

A short description of data set [2]: LogD, octanol/water distribution coefficient. It counts as physicochemical. The conditions noted are these: pH 7.4; octanol/water distribution coefficient at pH7.4. The source says: Fig 2 Optimization stages of Ugi products as TLR4 agonists. *Human TLR-4 NFκB SEAP reporter assays; protocol as described in Methods. Data are reported as pEC50, or negative log of the EC50 values. **Clint rh / hm represents intrinsic clearance in presence of rat hepatocytes (μL/min/10^6 cells) and human microsomes (μL/min/mg protein). […] Thus a drug molecule with LogD >4 might be considered to be very lipophilic and therefore more likely to suffer from rapid metabolic turnover, poor solubility and receptor promiscuity; whereas a LogD range of 1–3 is more likely to be associated with optimal physicochemical and drug-like properties. ^††Solubility was measured by dissolution of solid samples in buffer at pH 7.4.

T1 sequence (O00206 24-839): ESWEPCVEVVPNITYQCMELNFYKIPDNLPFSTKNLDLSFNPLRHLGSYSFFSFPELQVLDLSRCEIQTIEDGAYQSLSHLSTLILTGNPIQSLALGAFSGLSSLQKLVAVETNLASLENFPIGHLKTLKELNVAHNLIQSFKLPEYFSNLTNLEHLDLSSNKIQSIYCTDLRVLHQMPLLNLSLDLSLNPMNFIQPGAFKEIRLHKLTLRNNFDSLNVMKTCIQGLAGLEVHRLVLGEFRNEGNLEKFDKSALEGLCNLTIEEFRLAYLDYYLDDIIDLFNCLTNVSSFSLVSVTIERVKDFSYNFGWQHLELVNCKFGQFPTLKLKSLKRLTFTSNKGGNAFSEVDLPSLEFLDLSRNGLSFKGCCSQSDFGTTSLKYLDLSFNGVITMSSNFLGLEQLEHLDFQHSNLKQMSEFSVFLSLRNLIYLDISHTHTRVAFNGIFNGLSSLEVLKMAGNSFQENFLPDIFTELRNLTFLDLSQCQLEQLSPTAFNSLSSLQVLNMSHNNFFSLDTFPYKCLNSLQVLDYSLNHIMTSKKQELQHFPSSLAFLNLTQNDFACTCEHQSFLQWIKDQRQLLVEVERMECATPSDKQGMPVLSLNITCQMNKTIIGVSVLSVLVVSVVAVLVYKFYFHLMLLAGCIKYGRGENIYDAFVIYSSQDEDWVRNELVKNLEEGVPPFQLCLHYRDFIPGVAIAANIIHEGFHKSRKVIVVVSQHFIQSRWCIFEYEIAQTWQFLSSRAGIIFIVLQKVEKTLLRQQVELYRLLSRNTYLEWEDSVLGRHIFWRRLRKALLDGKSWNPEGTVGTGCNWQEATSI
T1 sequence (Q9Y6Y9 19-160): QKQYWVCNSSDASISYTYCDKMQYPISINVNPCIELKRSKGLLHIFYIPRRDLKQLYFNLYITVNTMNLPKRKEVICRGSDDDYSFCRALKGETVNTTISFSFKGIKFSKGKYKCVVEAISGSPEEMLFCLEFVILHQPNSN

Take `C#Cc1ccc(C(C(=O)N[C@@H](C(=O)O)C(C)C)N(C(=O)c2cc(-c3ccccc3)n(-c3ccccc3)n2)c2ccc(OC)cc2)cc1` (stereo partly drawn) [AZ792]: the EC50 in data set [1] is 2000 nM.
`COc1ccc(N(C(=O)c2cc(-c3ccccc3)n(-c3ccccc3)n2)C(C(=O)NC2CCCC2)c2ccc(CC(=O)O)cc2)cc1` (stereo not drawn) [AZ635]: the EC50 in data set [1] is 100 nM. For the same compound, the logD in data set [2] was determined as 2.74.
With `C#Cc1ccc(C(C(=O)NC2CCCC2)N(C(=O)c2ccc(-c3ccccc3)[nH]2)c2ccc(OC)cc2)cc1` (stereo not drawn) [AZ462], the EC50 in data set [1] was 1000 nM. The pH-dependent lipophilicity (logD) in data set [2] was above 4.5.
The matching figures for `CC(C)c1ccc(N(C(=O)c2cc(-c3ccccc3)n(-c3ccccc3)n2)C(C(=O)NC2CCCC2)c2ccc(CC(=O)NO)cc2)cc1` (stereo not drawn) [AZ226]: 158 nM and above 4.5.
On to `CC(C)c1ccc(N(C(=O)c2cc(-c3ccccc3)n(-c3ccccc3)n2)C(C(=O)NC2CCCC2)c2ccc(/C=C/C(=O)O)cc2)cc1` (stereo not drawn) [AZ368, (E)-3-(4-(2-(cyclopentylamino)-1-(N-(4-isopropylphenyl)-1,5-diphenyl-1H-pyrazole-3-carboxamido)-2-oxoethyl)phenyl)acrylic acid], for which, in data set [1], the EC50 is 1.58 nM.
With `O=C(O)Cc1ccc(C(C(=O)NC2CCCC2)N(C(=O)c2cc(-c3ccccc3)n(-c3ccccc3)n2)c2ccc(Cc3ccccc3)cc2)cc1` (stereo not drawn) [AZ897], in data set [1], the EC50 was 12.3 nM. Moreover, the logD in data set [2] was 4.3.
Regarding `COc1ccc(N(C(=O)c2cc(-c3ccccc3)n(-c3ccccc3)n2)C(C(=O)NC2CCCC2)c2ccncc2)cc1` (stereo not drawn) [AZ842], in data set [1], the EC50 is 398 nM. Besides, the logD in data set [2] is above 4.5.

As a reminder, the logD is the decadic logarithm of the distribution of all forms, ionised or not, between an organic phase and buffer at a given pH. The low end stands for lower lipophilicity, the high end for higher lipophilicity.
